Assay results from patent US9309248B2, “Azaindolines” (Hoffmann-La Roche Inc., priority 2012, dated 2016).

Tests used:
[1] = molecular target: T1, BIR2 domain of XIAP (Homo sapiens, UniProt P98170, C202A/C213G); test: TR-FRET assay for BIR2 (inhibition of binding of XIAP BIR2 domain to SMAC-derived Peptide A); details: 6x Histidine-tagged BIR2 domain (amino acids 124-240 of XIAP) 10 nM, Peptide A 20 nM
T1 construct: 6× Histidine-tagged BIR2 domain, corresponding to amino acids 124-240 of XIAP
Description: (§1) TR-FRET Assay for BIR2 and BIR3
(§2) The ability of a test compound to inhibit the binding of BIR2 and/or BIR3 domains of the XIAP protein to Peptide A (a SMAC-derived peptide described below) evidences that the test compound acts as a SMAC-mimetic resulting in reactivation of a cell's apoptotic pathway.
(§3) The peptides were labeled with the fluorescent tags FITC or TAMRA and Kd values were determined by fluorescence polarization assay. […] The peptide sequence was derivatized with biotin to provide […]-(ε-biotin)-OH 1:2 TFA as the substrate for the TR-FRET assay.
The XIAP protein sequence was obtained from the SWISS-PROT protein sequence database and the BIR2 and BIR3 domains were derived from that. The sequence of the BIR2 domain used for the TR-FRET assay is […].
Time-resolved fluorescence resonance energy transfer (TR-FRET) signals were measured 1 hour later at room temperature. Test compound potency was assessed at 10 serially diluted concentrations. Percentage of inhibition at each concentration was determined to generate an IC50 value for each test compound.

[2] = molecular target: T2, BIR3 domain of XIAP (Homo sapiens, UniProt P98170); test: TR-FRET assay for BIR3 (inhibition of binding of XIAP BIR3 domain to SMAC-derived Peptide A); details: 6x Histidine-tagged BIR3 domain (amino acids 241-356 of XIAP) 10 nM, Peptide A 20 nM
T2 construct: BIR3 domain, corresponding to amino acids 241-356 of XIAP
T2 sequence (P98170 with tags, fused parts or gaps): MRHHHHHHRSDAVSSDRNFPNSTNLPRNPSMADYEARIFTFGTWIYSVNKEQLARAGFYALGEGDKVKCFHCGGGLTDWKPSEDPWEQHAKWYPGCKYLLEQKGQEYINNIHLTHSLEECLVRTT
Description: as §1, §2, §3
The sequence of the BIR3 domain used for the TR-FRET assay is […]
Ten nanomolar of 6× Histidine-tagged BIR2 domain, corresponding to amino acids 124-240 of XIAP, or BIR3 domain, corresponding to amino acids 241-356 of XIAP, was mixed with 20 nM of the peptide […]-(z-biotin)-OH 1:2 TFA, in the presence of 50 mM Tris-Cl, pH 7.5, 100 mM NaCl, 1 mM dithiothreitol (DTT) and 0.1 mg/mL bovine serum albumin (BSA). Following a […] incubation at 37° C., Europium-Streptavidin and Allophycocyanin conjugated anti-Histidine antibody were added to a final concentration of 1.5 nM and 15 nM, respectively. Time-resolved fluorescence resonance energy transfer (TR-FRET) signals were measured 1 hour later at room temperature. Test compound potency was assessed at 10 serially diluted concentrations. Percentage of inhibition at each concentration was determined to generate an IC50 value for each test compound.

T1 sequence (P98170 with tags, fused parts or gaps C202A/C213G): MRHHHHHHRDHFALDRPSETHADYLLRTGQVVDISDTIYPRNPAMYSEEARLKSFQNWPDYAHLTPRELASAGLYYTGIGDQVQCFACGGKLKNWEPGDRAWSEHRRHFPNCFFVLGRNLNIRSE

Compound	IC50 [1]	IC50 [2]
CN[C@@H](C)C(=O)N[C@H](C(=O)N1c2ncccc2C[C@H]1c1nc2ccccc2[nH]1)C(C)C [Example 34, (S)—N—{(S)-1-[(S)-2-(1H-Benzoimidazol-2-yl)-2,3-dihydro-pyrrolo[2,3-b]pyridine-1-carbonyl]-2-methyl-propyl}-2-methylamino-propionamide]	137 nM	> 54800 nM
CN[C@@H](C)C(=O)N[C@H](C(=O)N1c2ncccc2C[C@@H]1c1nc2ccccc2[nH]1)C(C)C [Example 35, (S)—N—{(S)-1-[(R)-2-(1H-Benzoimidazol-2-yl)-2,3-dihydro-pyrrolo[2,3-b]pyridine-1-carbonyl]-2-methyl-propyl}-2-methylamino-propionamide]	37700 nM	> 54800 nM
CN[C@@H](C)C(=O)N[C@H](C(=O)N1c2ncccc2C[C@H]1C(=O)NCC(F)(F)F)C(C)C [Example 37, (S)-1-[(S)-3-Methyl-2-((S)-2-methylamino-propionylamino)-butyryl]-2,3-dihydro-1H-pyrrolo[2,3-b]pyridine-2-carboxylic acid (2,2,2-trifluoro-ethyl)-amide]	323 nM	> 54800 nM
CN[C@@H](C)C(=O)N[C@H](C(=O)N1c2ncccc2C[C@H]1C(=O)Nc1cnccc1C)C(C)C [Example 38, (S)-1-[(S)-3-Methyl-2-((S)-2-methylamino-propionylamino)-butyryl]-2,3-dihydro-1H-pyrrolo[2,3-b]pyridine-2-carboxylic acid (4-methyl-pyridin-3-yl)-amide]	237 nM	> 54800 nM
CN[C@@H](C)C(=O)N[C@H](C(=O)N1c2ncccc2C[C@H]1C(=O)Nc1cccc(F)c1)C(C)C [Example 39, (S)-1-[(S)-3-Methyl-2-((S)-2-methylamino-propionylamino)-butyryl]-2,3-dihydro-1H-pyrrolo[2,3-b]pyridine-2-carboxylic acid (3-fluoro-phenyl)-amide]	226 nM	> 54800 nM
CCc1ccccc1NC(=O)[C@@H]1Cc2cccnc2N1C(=O)[C@@H](NC(=O)[C@H](C)NC)C(C)C [Example 40, (S)-1-[(S)-3-Methyl-2-((S)-2-methylamino-propionylamino)-butyryl]-2,3-dihydro-1H-pyrrolo[2,3-b]pyridine-2-carboxylic acid (2-ethyl-phenyl)-amide]	104 nM	> 54800 nM
CN[C@@H](C)C(=O)N[C@H](C(=O)N1c2ncccc2C[C@H]1C(=O)Nc1ccc(C2CCNCC2)cc1)C(C)C [Example 41, (S)-1-[(S)-3-Methyl-2-((S)-2-methylamino-propionylamino)-butyryl]-2,3-dihydro-1H-pyrrolo[2,3-b]pyridine-2-carboxylic acid (4-piperidin-4-yl-phenyl)-amide]	701 nM	> 54800 nM
CN[C@@H](C)C(=O)N[C@H](C(=O)N1c2ncccc2C[C@H]1C(=O)Nc1ccc(C(=O)c2ccccc2)cc1)C(C)C [Example 42, (S)-1-[(S)-3-Methyl-2-((S)-2-methylamino-propionylamino)-butyryl]-2,3-dihydro-1H-pyrrolo[2,3-b]pyridine-2-carboxylic acid (4-benzoyl-phenyl)-amide]	847 nM	> 54800 nM
CN[C@@H](C)C(=O)N[C@H](C(=O)N1c2ncccc2C[C@H]1C(=O)Nc1cc(C)cc(C)c1)C(C)C [Example 45, (S)-1-[(S)-3-Methyl-2-((S)-2-methylamino-propionylamino)-butyryl]-2,3-dihydro-1H-pyrrolo[2,3-b]pyridine-2-carboxylic acid (3,5-dimethyl-phenyl)-amide]	304 nM	> 54800 nM
CN[C@@H](C)C(=O)N[C@H](C(=O)N1c2ncccc2C[C@H]1C(=O)Nc1ccc(C(=O)OC)cc1F)C(C)C [Example 49, 3-Fluoro-4-({(S)-1-[(S)-3-methyl-2-((S)-2-methylamino-propionylamino)-butyryl]-2,3-dihydro-1H-pyrrolo[2,3-b]pyridine-2-carbonyl}-amino)-benzoic acid methyl ester]	102 nM	> 54800 nM
CN[C@@H](C)C(=O)N[C@H](C(=O)N1c2ncccc2C[C@H]1C(=O)Nc1ccc(S(C)(=O)=O)cc1F)C(C)C [Example 50, (S)-1-[(S)-3-Methyl-2-((S)-2-methylamino-propionylamino)-butyryl]-2,3-dihydro-1H-pyrrolo[2,3-b]pyridine-2-carboxylic acid (2-fluoro-4-methanesulfonyl-phenyl)-amide]	89.3 nM	> 54800 nM
CN[C@@H](C)C(=O)N[C@H](C(=O)N1c2ncccc2C[C@H]1C(=O)NCCS(C)(=O)=O)C(C)C [Example 51, (S)-1-[(S)-3-Methyl-2-((S)-2-methylamino-propionylamino)-butyryl]-2,3-dihydro-1H-pyrrolo[2,3-b]pyridine-2-carboxylic acid (2-methanesulfonyl-ethyl)-amide]	828 nM	> 54800 nM
CN[C@@H](C)C(=O)N[C@H](C(=O)N1c2ncccc2C[C@H]1C(=O)NC(C)c1ccccc1)C(C)C (stereo partly drawn) [Example 52, (S)-1-[(S)-3-Methyl-2-((S)-2-methylamino-propionylamino)-butyryl]-2,3-dihydro-1H-pyrrolo[2,3-b]pyridine-2-carboxylic acid (1-phenyl-ethyl)-amide]	978 nM	21500 nM
CN[C@@H](C)C(=O)N[C@H](C(=O)N1c2ncccc2C[C@H]1C(=O)NCCS(=O)(=O)N(C)C)C(C)C [Example 53, (S)-1-[(S)-3-Methyl-2-((S)-2-methylamino-propionylamino)-butyryl]-2,3-dihydro-1H-pyrrolo[2,3-b]pyridine-2-carboxylic acid (2-dimethylsulfamoyl-ethyl)-amide]	740 nM	> 54800 nM

Compounds with a lower IC50 [1], results first:

IC50 [1]	IC50 [2]	Compound
71.1 nM	> 54800 nM	CN[C@@H](C)C(=O)N[C@H](C(=O)N1c2ncccc2C[C@H]1C(=O)Nc1cccc(C)c1C)C(C)C [Example 43, (S)-1-[(S)-3-Methyl-2-((S)-2-methylamino-propionylamino)-butyryl]-2,3-dihydro-1H-pyrrolo[2,3-b]pyridine-2-carboxylic acid (2,3-dimethyl-phenyl)-amide]
54.9 nM	> 54800 nM	CN[C@@H](C)C(=O)N[C@H](C(=O)N1c2ncccc2C[C@H]1C(=O)Nc1ccccc1C#N)C(C)C [Example 48, (S)-1-[(S)-3-Methyl-2-((S)-2-methylamino-propionylamino)-butyryl]-2,3-dihydro-1H-pyrrolo[2,3-b]pyridine-2-carboxylic acid (2-cyano-phenyl)-amide]
44.9 nM	> 54800 nM	CN[C@@H](C)C(=O)N[C@H](C(=O)N1c2ncccc2C[C@H]1C(=O)Nc1c(C)cccc1C)C(C)C [Example 33, (S)-1-[(S)-3-Methyl-2-((S)-2-methylamino-propionylamino)-butyryl]-2,3-dihydro-1H-pyrrolo[2,3-b]pyridine-2-carboxylic acid (2,6-dimethyl-phenyl)-amide]
12.7 nM	> 54800 nM	CN[C@@H](C)C(=O)N[C@H](C(=O)N1c2ncccc2C[C@H]1C(=O)Nc1ccccc1F)C(C)C [Example 36, (S)-1-[(S)-3-Methyl-2-((S)-2-methylamino-propionylamino)-butyryl]-2,3-dihydro-1H-pyrrolo[2,3-b]pyridine-2-carboxylic acid (2-fluoro-phenyl)-amide]
4.29 nM	> 54800 nM	CN[C@@H](C)C(=O)N[C@H](C(=O)N1c2ncccc2C[C@H]1C(=O)Nc1ccc(OC)cc1F)C(C)C [Example 47, (S)-1-[(S)-3-Methyl-2-((S)-2-methylamino-propionylamino)-butyryl]-2,3-dihydro-1H-pyrrolo[2,3-b]pyridine-2-carboxylic acid (2-fluoro-4-methoxy-phenyl)-amide]
4.04 nM	> 54800 nM	CN[C@@H](C)C(=O)N[C@H](C(=O)N1c2ncccc2C[C@H]1C(=O)Nc1ccc(C)cc1F)C(C)C [Example 46, (S)-1-[(S)-3-Methyl-2-((S)-2-methylamino-propionylamino)-butyryl]-2,3-dihydro-1H-pyrrolo[2,3-b]pyridine-2-carboxylic acid (2-fluoro-4-methyl-phenyl)-amide]
3.8 nM	> 54800 nM	CN[C@@H](C)C(=O)N[C@H](C(=O)N1c2ncccc2C[C@H]1C(=O)Nc1cc(C)ccc1F)C(C)C [Example 44, (S)-1-[(S)-3-Methyl-2-((S)-2-methylamino-propionylamino)-butyryl]-2,3-dihydro-1H-pyrrolo[2,3-b]pyridine-2-carboxylic acid (2-fluoro-5-methyl-phenyl)-amide]
